# Target: human LPA1 receptor (Homo sapiens (Human), UniProt Q92633)
# Assay: Beta-arrestin recruitment assay to determine IC50 values for human LPAR1
# Assay type: cell-based
# Settings: antagonist mode, Tango EDG2-bla U2OS cells, LPA 18:1 500 nM final
# Method in brief: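 Tango EDG2-bla U2OS cells: LPA-driven beta-arrestin/TEV protease recruitment releases Gal4-VP16, inducing beta-lactamase reporter read with live-cell substrate. Cells seeded 20 h at 37 °C beforehand. IC50 is antagonist concentration inhibiting 50% of maximal response.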
# Chain of human LPA1 receptor (Q92633 whole entry): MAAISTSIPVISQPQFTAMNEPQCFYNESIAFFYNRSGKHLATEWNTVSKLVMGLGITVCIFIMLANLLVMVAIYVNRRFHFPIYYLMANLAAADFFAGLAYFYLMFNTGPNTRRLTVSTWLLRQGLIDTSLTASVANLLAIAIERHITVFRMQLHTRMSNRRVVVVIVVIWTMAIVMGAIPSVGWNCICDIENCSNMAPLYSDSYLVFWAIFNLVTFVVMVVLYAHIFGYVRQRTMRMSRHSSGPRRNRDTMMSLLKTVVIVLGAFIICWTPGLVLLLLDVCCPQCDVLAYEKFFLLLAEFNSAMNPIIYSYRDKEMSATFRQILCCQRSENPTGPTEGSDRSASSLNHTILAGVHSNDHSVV
row,Structure (SMILES),IC50
1,"Cc1ccc(NC(=O)C2(c3ncccc3C(C)C)CN(c3nc(C)ncc3F)C2)c(OC(F)F)n1 [Ex 64, N-(2-(difluoromethoxy)-6-methylpyridin-3-yl)-1-(5-fluoro-2-methylpyrimidin-4-yl)-3-(3-isopropylpyridin-2-yl)azetidine-3-carboxamide]",15 nM
2,"CNC(=O)C(C)(C)CCN1CC(C(=O)Nc2ccc(C)nc2OC(F)F)(c2ccccc2C(C)C)C1 [Ex 11-92, N-(2-(difluoromethoxy)-6-methylpyridin-3-yl)-1-(3,3-dimethyl-4-(methylamino)-4-oxobutyl)-3-(2-isopropylphenyl)azetidine-3-carboxamide]",44 nM
3,"Cc1ccc(NC(=O)C2(c3ccccc3C(C)C)CN(CCC(C)(C)C(=O)NS(C)(=O)=O)C2)c(OC(F)F)n1 [Ex 53, N-(2-(difluoromethoxy)-6-methylpyridin-3-yl)-1-(3,3-dimethyl-4-(methylsulfonamido)-4-oxobutyl)-3-(2-isopropylphenyl)azetidine-3-carboxamide]",17 nM
4,"COC(=O)[C@@H]1C[C@@H]1C(=O)N1CC(C(=O)Nc2ccc(C)nc2OC(F)F)(c2ccccc2C(C)C)C1 [Ex 12-96, methyl (1R,2S)-2-(3-((2-(difluoromethoxy)-6-methylpyridin-3-yl)carbamoyl)-3-(2-isopropylphenyl)azetidine-1-carbonyl)cyclopropane-1-carboxylate]",34 nM
5,"Cc1ccc(NC(=O)C2(c3ccccc3C(C)C)CN(CCNCC(=O)O)C2)c(OC(F)F)n1 [Ex 11-80, (2-(3-((2-(difluoromethoxy)-6-methylpyridin-3-yl)carbamoyl)-3-(2-isopropylphenyl)azetidin-1-yl)ethyl)glycine]",297 nM
6,"COc1nc(C)ccc1NC(=O)C1(c2ccccc2C(C)C)CN(C(=O)CCC(=O)O)C1 [Ex 12-62, 4-(3-(2-isopropylphenyl)-3-((2-methoxy-6-methylpyridin-3-yl)carbamoyl)azetidin-1-yl)-4-oxobutanoic acid]",65 nM
7,"CCCOc1nc(C)ccc1NC(=O)C1(c2ccccc2C(C)C)CN(S(N)(=O)=O)C1 [Ex 59, 3-(2-isopropylphenyl)-N-(6-methyl-2-propoxypyridin-3-yl)-1-sulfamoylazetidine-3-carboxamide]",270 nM
8,"Cc1ccc(NC(=O)C2(c3ccccc3C(C)C)CN(C(=O)[C@H](C)CC(=O)O)C2)c(OC(F)F)n1 [Ex 12-90, (R)-4-(3-((2-(difluoromethoxy)-6-methylpyridin-3-yl)carbamoyl)-3-(2-isopropylphenyl)azetidin-1-yl)-3-methyl-4-oxobutanoic acid]",14 nM
9,"Cc1ccc(NC(=O)C2(c3ccccc3C(C)C)CN(C(=O)CCCc3nnn[nH]3)C2)c(OC(F)F)n1 [Ex 12-30, 1-(4-(1H-tetrazol-5-yl)butanoyl)-N-(2-(difluoromethoxy)-6-methylpyridin-3-yl)-3-(2-isopropylphenyl)azetidine-3-carboxamide]",25 nM
10,"Cc1ccc(NC(=O)C2(c3ccccc3C(C)C)CN(Cc3cn(CC(=O)O)nn3)C2)c(OC(F)F)n1 [Ex 11-49, 2-(4-((3-((2-(difluoromethoxy)-6-methylpyridin-3-yl)carbamoyl)-3-(2-isopropylphenyl)azetidin-1-yl)methyl)-1H-1,2,3-triazol-1-yl)acetic acid]",547 nM
11,"COC(=O)c1n[nH]cc1CN1CC(C(=O)Nc2ccc(C)nc2OC(F)F)(c2ccccc2C(C)C)C1 [Ex 11-37, methyl 4-((3-((2-(difluoromethoxy)-6-methylpyridin-3-yl)carbamoyl)-3-(2-isopropylphenyl)azetidin-1-yl)methyl)-1H-pyrazole-3-carboxylate]",6 nM
12,"Cc1ccc(NC(=O)C2(c3ccccc3C(C)C)CCN(C(=O)C[C@H](O)C(=O)O)CC2)c(OC(F)F)n1 [Ex 12-37, (S)-4-(4-((2-(difluoromethoxy)-6-methylpyridin-3-yl)carbamoyl)-4-(2-isopropylphenyl)piperidin-1-yl)-2-hydroxy-4-oxobutanoic acid]",22 nM
13,"Cc1ccc(C2(C(=O)Nc3ccc(C)nc3OC(F)F)CNC2)c(C(C)C)c1 [Ex 35, N-(2-(difluoromethoxy)-6-methylpyridin-3-yl)-3-(2-isopropyl-4-methylphenyl)azetidine-3-carboxamide]",75 nM
14,"Cc1ccc(NC(=O)C2(c3ccccc3C(C)C)CN(C(=O)C[C@@H](C)C(=O)O)C2)c(OC(F)F)n1 [Ex 12-80, (R)-4-(3-((2-(difluoromethoxy)-6-methylpyridin-3-yl)carbamoyl)-3-(2-isopropylphenyl)azetidin-1-yl)-2-methyl-4-oxobutanoic acid]",18 nM
15,"COc1cc(Cl)cnc1NC(=O)C1(c2ccccc2C(C)C)CNC1 [Ex 70, N-(5-chloro-3-methoxypyridin-2-yl)-3-(2-isopropylphenyl)azetidine-3-carboxamide]",866 nM
16,"Cc1ccc(NC(=O)C2(c3ccccc3C(C)C)CN(C(=O)CN3CC(=O)NC3=O)C2)c(OC(F)F)n1 [Ex 12-126, N-(2-(difluoromethoxy)-6-methylpyridin-3-yl)-1-(2-(2,4-dioxoimidazolidin-1-yl)acetyl)-3-(2-isopropylphenyl)azetidine-3-carboxamide]",46 nM
17,"CCOC(=O)C1(C(=O)N2CC(C(=O)Nc3ccc(C)nc3OC(F)F)(c3ccccc3C(C)C)C2)CNC1 [Ex 12-113, ethyl 3-(3-((2-(difluoromethoxy)-6-methylpyridin-3-yl)carbamoyl)-3-(2-isopropylphenyl)azetidine-1-carbonyl)azetidine-3-carboxylate]",53 nM
18,"Cc1ccc(NC(=O)C2(c3ccccc3C(C)C)CN(C(=O)[C@H]3CNCCO3)C2)c(OC(F)F)n1 [Ex 12-42, (R)-N-(2-(difluoromethoxy)-6-methylpyridin-3-yl)-3-(2-isopropylphenyl)-1-(morpholine-2-carbonyl)azetidine-3-carboxamide]",71 nM
19,"Cc1ccc(NC(=O)C2(c3ccccc3C(C)C)CN(C(=O)C[C@@](C)(O)C(=O)O)C2)c(OC(F)F)n1 [Ex 12-116, (R)-4-(3-((2-(difluoromethoxy)-6-methylpyridin-3-yl)carbamoyl)-3-(2-isopropylphenyl)azetidin-1-yl)-2-hydroxy-2-methyl-4-oxobutanoic acid]",63 nM

# Now from value to compound:
row,IC50,Structure (SMILES)
1,13 nM,"CC(C)c1ccccc1C1(C(=O)Nc2ncc(Br)cc2OC(F)F)CN(CCC(C)(C)C(=O)O)C1 [Ex 78-3, 4-(3-((5-bromo-3-(difluoromethoxy)pyridin-2-yl)carbamoyl)-3-(2-isopropylphenyl)azetidin-1-yl)-2,2-dimethylbutanoic acid]"
2,6 nM,"COC(=O)C(C)(C)CCNC(=O)N1CC(C(=O)Nc2ccc(C)nc2OC(F)F)(c2ccccc2C(C)C)C1 [Ex 17-18, methyl 4-(3-((2-(difluoromethoxy)-6-methylpyridin-3-yl)carbamoyl)-3-(2-isopropylphenyl)azetidine-1-carboxamido)-2,2-dimethylbutanoate]"
3,158 nM,"CC(=O)NS(=O)(=O)N1CC(C(=O)Nc2cccnc2OC(F)F)(c2ccccc2C(C)C)C1 [Ex 16-2, 1-(N-acetylsulfamoyl)-N-(2-(difluoromethoxy)pyridin-3-yl)-3-(2-isopropylphenyl)azetidine-3-carboxamide]"
4,49 nM,"Cc1ccc(NC(=O)C2(c3ccccc3C(C)C)CN(S(=O)(=O)CCCS(=O)(=O)O)C2)c(OC(F)F)n1 [Ex 13-30, 3-((3-((2-(difluoromethoxy)-6-methylpyridin-3-yl)carbamoyl)-3-(2-isopropylphenyl)azetidin-1-yl)sulfonyl)propane-1-sulfonic acid]"
5,1 nM,"Cc1ccc(NC(=O)C2(c3ccccc3C(C)C)CN(c3cc(F)ccn3)C2)c(OC(F)F)n1 [Ex 18-18, N-(2-(difluoromethoxy)-6-methylpyridin-3-yl)-1-(4-fluoropyridin-2-yl)-3-(2-isopropylphenyl)azetidine-3-carboxamide]"
6,41 nM,"Cc1ccc(NC(=O)C2(c3ccccc3C(C)C)CN(C(=O)NCCC(=O)O)C2)c(OC(F)F)n1 [Ex 17-5, 3-(3-((2-(difluoromethoxy)-6-methylpyridin-3-yl)carbamoyl)-3-(2-isopropylphenyl)azetidine-1-carboxamido)propanoic acid]"
7,13 nM,"COc1cc(Br)cnc1NC(=O)C1(c2ccccc2C(C)C)CN(S(N)(=O)=O)C1 [Ex 81-2, N-(5-bromo-3-methoxypyridin-2-yl)-3-(2-isopropylphenyl)-1-sulfamoylazetidine-3-carboxamide]"
8,12 nM,"Cc1ccc(NC(=O)C2(c3ccccc3C(C)C)CN(C(=O)NCC(C)(C)C(=O)O)C2)c(OC(F)F)n1 [Ex 17-17, 3-(3-((2-(difluoromethoxy)-6-methylpyridin-3-yl)carbamoyl)-3-(2-isopropylphenyl)azetidine-1-carboxamido)-2,2-dimethylpropanoic acid]"
9,30 nM,"Cc1ccc(NC(=O)C2(c3ccccc3C(C)C)CN(C(=O)OCC3(C(=O)O)COC3)C2)c(OC(F)F)n1 [Ex 14-14, 3-(((3-((2-(difluoromethoxy)-6-methylpyridin-3-yl)carbamoyl)-3-(2-isopropylphenyl)azetidine-1-carbonyl)oxy)methyl)oxetane-3-carboxylic acid]"
10,51 nM,"Cc1ccc(NC(=O)C2(c3c(C)cccc3C(C)C)CN(C(=O)CC(C)(C)C(=O)O)C2)c(OC(F)F)n1 [Ex 39-1, 4-(3-((2-(difluoromethoxy)-6-methylpyridin-3-yl)carbamoyl)-3-(2-isopropyl-6-methylphenyl)azetidin-1-yl)-2,2-dimethyl-4-oxobutanoic acid]"
11,5 nM,"CC(C)c1ccccc1C1(C(=O)Nc2cccnc2OC(F)F)CN(c2ncc(C#N)cn2)C1 [Ex 18-25, 1-(5-cyanopyrimidin-2-yl)-N-(2-(difluoromethoxy)pyridin-3-yl)-3-(2-isopropylphenyl)azetidine-3-carboxamide]"
12,71 nM,"CCOC(=O)c1coc(N2CC(C(=O)Nc3cccnc3OC(F)F)(c3ccccc3C(C)C)C2)n1 [Ex 18-29, ethyl 2-(3-((2-(difluoromethoxy)pyridin-3-yl)carbamoyl)-3-(2-isopropylphenyl)azetidin-1-yl)oxazole-4-carboxylate]"
